Test results published in ChEMBL document CHEMBL1201862, “PubChem BioAssay data set” (2004).
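Interpolation was linear, between the two tested concentrations surrounding the appropriate level; five concentrations were tested over 48 hours in 96-well plates. Here, GI50 denotes the concentration required for 50% inhibition of growth.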 Activity calls are given as the source filed them. No stated cut-off is given here; in the data, active = GI50 up to about 1.1 µM and inactive = higher. Where a SMILES comes first, the peptide text is derived from it. The star is where a group is joined. Boc = CC(C)(C)OC(=O)*

Key:
Assay in all cases: NCI tumour cell line growth inhibition, 48 h
[1] = system: BT-549
[2] = system: KM-20L2
[3] = system: LXFL 529
[4] = system: SNB-78
[5] = system: DMS-114
[6] = system: HOP-18
[7] = system: RXF 631
[8] = system: DMS-273
[9] = system: XF498

Row | SMILES | GI50 [1] | GI50 [2] | GI50 [3] | GI50 [5] | GI50 [6] | GI50 [8] | also measured
1 | CC1CC/C(=C\c2ccc(F)cc2)C(=O)/C1=C/c1ccc(F)cc1 (configuration not stated) | 3.58 µM (inactive) |  |  |  |  |  | 
2 | Nc1ncnn2c(C3OC(CO)C(O)C3O)ccc12 (configuration not stated) | 0.175 µM (active) |  |  |  |  |  | 
3 | Cc1ccc(S(=O)(=O)N/N=c2\c(C)c(C3=NS(=O)(=O)c4cc(S(N)(=O)=O)c(Cl)cc4N3)oc3c(Cl)cc(Cl)cc23)cc1 |  | > 100 µM (inactive) | > 100 µM (inactive) | 26.9 µM (inactive) | 45.3 µM (inactive) | 27 µM (inactive) | GI50 [4]: > 100 µM (inactive); GI50 [7]: 79.1 µM (inactive)
4 | COC(=O)c1cc(S(=O)(=O)NC2=NNC(C)CN2)c(S)cc1Cl (configuration not stated) | > 100 µM (inactive) |  |  |  |  |  | 
5 | C(CCCCc1nnc(N2CCOCC2)o1)CCCc1nnc(N2CCOCC2)o1 | > 100 µM (inactive) |  |  |  |  |  | 
6 | C/C=C/CC(C)[C@@H](O)[C@H](NC)C(=O)O (some centres not stated) |  | > 100 µM (inactive) | > 100 µM (inactive) | > 100 µM (inactive) | > 100 µM (inactive) | > 100 µM (inactive) | 
7 | COc1cc(OC)c2c(=O)c(O)c(-c3ccc(OC)c(OC)c3)oc2c1 | 0.755 µM (active) |  |  |  |  |  | 
8 | NC(=S)Nc1nnc(-c2ccc(-c3nnc(NC(N)=S)o3)cc2)o1 |  | > 100 µM (inactive) | > 100 µM (inactive) | > 100 µM (inactive) | > 100 µM (inactive) | > 100 µM (inactive) | GI50 [4]: > 100 µM (inactive)
9 | O/N=C1\CC2(N3CCOCC3)CCC1(c1ccccc1)CC2 | > 100 µM (inactive) |  |  |  |  |  | 
10 | COc1ccccc1-c1cc(O)c2ccc(C)nc2n1 | > 100 µM (inactive) |  |  |  |  |  | 
11 | O=C(O)c1cccc(OCCOc2cccc(C(=O)O)c2[N+](=O)[O-])c1[N+](=O)[O-] | > 100 µM (inactive) |  |  |  |  |  | 
12 | O=C(/C(=C(/Br)I)c1ccccc1)c1ccccc1 | 22.9 µM (inactive) |  |  |  |  |  | 
13 | N=C(N)SCCc1cn2ccccc2n1 |  |  |  | > 100 µM (inactive) | > 100 µM (inactive) | > 100 µM (inactive) | GI50 [4]: > 100 µM (inactive); GI50 [9]: > 100 µM (inactive)
14 | C#CC1(O)CC(c2ccccc2)N(C)C(c2ccccc2)C1 (configuration not stated) |  | > 100 µM (inactive) | > 100 µM (inactive) | > 100 µM (inactive) |  | > 100 µM (inactive) | GI50 [4]: > 100 µM (inactive); GI50 [7]: > 100 µM (inactive)
15 | CCCCCCCC(=O)OC[C@H](C[As](=O)(O)O)OC(=O)CCCCCCC |  | 16.6 µM (inactive) | 9.55 µM (inactive) | 6.84 µM (inactive) | 22 µM (inactive) | 11.3 µM (inactive) | GI50 [4]: 14 µM (inactive)
16 | Cc1cc(C)c2c(c1)CSCc1cc(C)cc(C)c1-2 |  | 35.1 µM (inactive) | 57.5 µM (inactive) | 25.2 µM (inactive) | 37.6 µM (inactive) | 58.1 µM (inactive) | GI50 [4]: 25.1 µM (inactive)
17 | C=C1CC/C=C(\C)CCC[C@H](C)[C@@H](O)[C@@H]2OC(=O)C(=C)[C@@H]2C[C@H]1O | 0.288 µM (active) |  |  |  |  |  | 
18 | Oc1ccc(-c2nc(-c3cccnc3)c(-c3ccc(Cl)cc3)[nH]2)cc1 | 15.3 µM (inactive) |  |  |  |  |  | 
19 | COc1ccc2c(c1)/C(=C(\C(Cl)=C(\Cl)N1CCCCC1)[N+](=O)[O-])N2 | 98.6 µM (inactive) |  |  |  |  |  | 
20 | Cc1cccc(NC(=S)Nc2ccc(Cl)cc2)n1 | > 100 µM (inactive) |  |  |  |  |  | 
21 | CC(OC1CC(=O)CC2C(=O)C=CC(=O)C12)c1ccccc1 (configuration not stated) |  | 17.3 µM (inactive) | 7.33 µM (inactive) | 8.05 µM (inactive) | 18.2 µM (inactive) | 19.1 µM (inactive) | GI50 [4]: 19.5 µM (inactive); GI50 [9]: 15.8 µM (inactive)
22 | COc1ccc(OC)c(/C=C(/C#N)c2ccccc2)c1 |  | 16.6 µM (inactive) | 34.3 µM (inactive) |  | > 100 µM (inactive) | 4.22 µM (inactive) | 
23 | O=C(N/C(=C\c1ccc([N+](=O)[O-])cc1)c1nc2ccccc2[nH]1)c1ccccc1 |  | > 100 µM (inactive) | 39.4 µM (inactive) | > 100 µM (inactive) | > 100 µM (inactive) |  | GI50 [4]: > 100 µM (inactive); GI50 [7]: 43.7 µM (inactive)
24 | COc1ccc(OC)c2c(=S)c3ccccc3[nH]c12 | > 100 µM (inactive) | > 100 µM (inactive) | 56 µM (inactive) | 32 µM (inactive) |  | > 82.8 µM (inactive) | GI50 [9]: > 100 µM (inactive); GI50 [7]: 41.5 µM (inactive)
25 | COc1cc(C2SCC(=O)N2c2cccc(Cl)c2)cc(OC)c1OC (configuration not stated) | 26.4 µM (inactive) |  |  |  |  |  | 
26 | COC(=O)C(Cc1c[nH]c2ccccc12)NC(=O)C(Cc1c[nH]c2ccccc12)NC(=O)C(Cc1c[nH]c2ccccc12)NC(=O)C(Cc1c[nH]c2ccccc12)NC(=O)C(Cc1c[nH]c2ccccc12)NC(=O)C(Cc1c[nH]c2ccccc12)NC(=O)C(Cc1c[nH]c2ccccc12)NC(=O)OC(C)(C)C (configuration not stated) (Boc-WWWWWWW-OMe; configuration not given here) | > 100 µM (inactive) |  |  |  |  |  | 
27 | CCCCNc1nc(O)c2[nH]cnc2n1 | > 100 µM (inactive) |  |  |  |  |  | 
28 | COc1cc2oc(-c3ccc(O)cc3O)c(CC=C(C)C)c(=O)c2c(O)c1/C=C/C(C)C [ARTOCARPIN] | 5.45 µM (inactive) |  |  |  |  |  | 
29 | COc1cc2c(cc1OC)C(N(C)C)C(c1ccccc1)=C2Cl (configuration not stated) |  | 25 µM (inactive) |  |  | 28.5 µM (inactive) | 16.4 µM (inactive) | GI50 [7]: 15.7 µM (inactive)
30 | N=C(N)c1ccc(C(NC(=O)CNS(=O)(=O)c2ccc3ccccc3c2)P(=O)(Oc2ccccc2)Oc2ccccc2)cc1 (configuration not stated) | 19.2 µM (inactive) |  |  |  |  |  | 
